Source: patent US9447157B2, “Nitration shielding peptides and methods of use thereof” (Augusta University Research Institute, Inc., priority 2013, dated 2016)
Substitutions are numbered along the chain they refer to.

What was measured:
PKG-1α [1] = target: T1, PKG-1α (Homo sapiens, UniProt Q13976); assay: [3H]cGMP dissociation/exchange assay; format: binding; details: SIN-1 500 μM 30 min
T1 construct: transfected with an expression plasmid containing a full length WT-PKG-1α cDNA; made in house; host or cells: HEK-293T (methods); the results paragraph b527 says PASMC
T1 sequence (Q13976 2-671): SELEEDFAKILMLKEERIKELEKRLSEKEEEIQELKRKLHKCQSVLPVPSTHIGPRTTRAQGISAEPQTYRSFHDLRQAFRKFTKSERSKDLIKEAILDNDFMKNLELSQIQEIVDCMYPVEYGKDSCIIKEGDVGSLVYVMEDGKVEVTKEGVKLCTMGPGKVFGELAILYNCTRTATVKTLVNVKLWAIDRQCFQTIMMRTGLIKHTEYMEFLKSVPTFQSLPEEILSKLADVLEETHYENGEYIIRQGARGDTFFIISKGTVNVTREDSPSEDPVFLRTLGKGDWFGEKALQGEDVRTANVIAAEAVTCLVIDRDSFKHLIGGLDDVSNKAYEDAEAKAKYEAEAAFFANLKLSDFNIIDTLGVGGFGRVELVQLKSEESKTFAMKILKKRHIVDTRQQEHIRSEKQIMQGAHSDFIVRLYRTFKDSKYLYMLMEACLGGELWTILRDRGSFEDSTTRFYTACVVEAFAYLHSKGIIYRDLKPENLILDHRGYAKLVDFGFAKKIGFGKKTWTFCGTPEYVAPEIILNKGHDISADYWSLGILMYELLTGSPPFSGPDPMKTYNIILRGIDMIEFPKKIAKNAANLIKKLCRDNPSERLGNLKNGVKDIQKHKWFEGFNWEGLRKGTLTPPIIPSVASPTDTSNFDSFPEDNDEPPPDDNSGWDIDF
Protocol: (§1) WT- and Y247F-PKG-1α were immunopurified, as described above then incubated for 60 min at room temperature with 3 ml of cGMP-binding assay mixture containing 3 μM [^3H]cGMP. This incubation time and dose has been previously experimentally determined to be adequate for the saturation of the cGMP-binding sites in PKG. After incubation, the samples were cooled to 4° C. and divided into 200 μl aliquots per tube. The addition of 100-fold excess unlabeled cGMP at time 0 sec (Bo) initiated the dissociation (exchange) of the bound [^3H]cGMP. The cGMP exchange in each tube was stopped at the appropriate time point by the addition of 2 ml of cold aqueous saturated (NH4)2SO4. The samples were filtered, washed, and the portion of bound [^3H]cGMP at any time point was determined, as described previously.

PKG-1α [2] = target: T2, PKG-1α (Homo sapiens, UniProt Q13976, Y247F); assay: [3H]cGMP dissociation/exchange assay; format: binding; details: SIN-1 500 μM 30 min
T2 sequence (Q13976 2-671 Y247F): T1 sequence (Q13976 2-671) with Y246F
Protocol: as §1

PKG-1α [3] = target: T1, PKG-1α; assay: PKG-1α nitration (IP, 3-NT blot) in transfected HEK-293T cells; format: cell-based; details: HEK-293T expressing WT-PKG-1α, SIN-1 500 μM 30 min
Protocol: (§2) Cells were homogenized in 3× weight/volume of IP buffer (25 mM Hepes, pH 7.5, 150 mM NaCl, 1% NP-40, 10 mM MgCl2, 1 mM EDTA, 2% glycerol, supplemented with protease inhibitor). The homogenates were then centrifuged at 20,000 g at 4° C. for 20 min, the supernatant was collected, and the protein concentration was quantified by the Bio-Rad DC Protein Assay. To 1000 μg of total protein, 4 μg of antibody against PKG-1α was added; the volume was brought to 1 ml with IP buffer, and the mixture was nutated at 4° C. overnight. To precipitate the bound protein, 30 μl of protein G plus agarose suspension (EMD biosciences, Inc., San Diego, Calif.) was added, and the samples were nutated for 2 h at 4° C. To collect the bead-bound antibody, the samples were then centrifuged at 2000 g for 5 min at 4° C., the supernatant was removed, and the beads were washed 3× with 500 μl of IP buffer. […]
(§3) To determine the role of tyrosine 247 and tyrosine 425 in mediating the nitration dependent inhibition of PKG-1α kinase activity, Y247F- and Y425F-PKG-1α mutants were generated and expressed in HEK-293T cells. […] Protein extracts were immunoprecipitated using an antibody raised against PKG-1α and the level of nitrated PKG-1α determined by probing the membranes with an antiserum raised against 3-NT. […]

PKG-1α [4] = assay: as above; format: cell-based, human; details: HEK-293T expressing Y247F- or Y425F-PKG-1α, SIN-1 500 μM 30 min
Protocol: as §2, §3

[3H]cGMP exchange/dissociation from WT-PKG-1α (PKG-1α [1]): enhanced
[3H]cGMP exchange/dissociation from Y247F mutant (PKG-1α [2]): but not from the Y247F mutant
Nitration of WT-PKG-1α (PKG-1α [3]): significantly increased
Substance: 3-morpholinosydnonimine N-ethylcarbamide [SIN-1]
Nitration levels of Y247F- or Y425F-PKG-1α (PKG-1α [4]): no significant increases
